The text below walks through data of US7897607B2, “Cyclic compounds” (Takeda Pharmaceutical Company Limited, priority 2005, dated 2011).

What is called inhibition is the relative decrease from the control value, in per cent. Read a high inhibition as a response far below the control.

Molecules are shown by their SMILES.

For the assay, the target named is T1, human CRF receptor (Homo sapiens, UniProt P34998).
T1 construct: expressed in transfected cells; host or cells: CHO cells (membrane fraction)
T1 sequence (P34998 24-415): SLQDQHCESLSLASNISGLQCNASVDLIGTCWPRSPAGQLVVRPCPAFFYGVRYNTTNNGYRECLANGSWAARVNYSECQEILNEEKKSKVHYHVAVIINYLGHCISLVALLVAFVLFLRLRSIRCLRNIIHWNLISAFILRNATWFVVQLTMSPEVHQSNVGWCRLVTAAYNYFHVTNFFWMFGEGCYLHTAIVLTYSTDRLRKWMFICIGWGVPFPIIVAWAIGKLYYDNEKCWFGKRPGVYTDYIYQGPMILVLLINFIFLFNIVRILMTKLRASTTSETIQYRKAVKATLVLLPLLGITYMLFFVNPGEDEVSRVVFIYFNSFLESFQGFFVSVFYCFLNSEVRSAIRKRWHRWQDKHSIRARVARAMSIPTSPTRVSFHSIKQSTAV
The experiment in a line: Measurement of corticotropin-releasing factor (CRF) binding inhibitory rate; receptor binding experiment with 125I-CRF. To be noted: human CRF receptor expressing CHO cellular membrane fraction, 50 pM 125I-CRF, room temperature 1 hour. How it is done:
Measurement of Corticotropin-Releasing Factor (CRF) Binding Inhibitory Rate
A receptor binding experiment was carried out using a human CRF receptor expressing CHO cellular membrane fraction and sheep CRF, [^125I]-tyr^0(^125I-CRF). 100 nM of a test compound was incubated with 1 μg of human CRF receptor expressing CHO cellular membrane fraction and 50 pM of ^125I-CRF in a binding assay buffer (50 mM Tris-HCl, 5 mM EDTA, 10 mM MgCl2, 0.05% CHAPS, 0.1% BSA, 0.5 mM PMSF, […] pepstatin, 20 μg/ml leupeptin, pH 7.5). In addition, for measuring nonspecific binding (NSB), 0.1 μM unlabelled human Urocortin was incubated with 1 μg of human CRF receptor expressing CHO cellular membrane fraction and 50 pM of ^125I-CRF in a binding assay buffer. After a binding reaction was carried out at room temperature for 1 hour, the membrane was entrapped on a glass filter (UniFilter plate GF-C/Perkin Elmer) by suction filtration using a cell harvester (Perkin Elmer), and washed with ice-cooled 50 mM Tris-HCl (pH 7.5). After drying the glass filter, a liquid scintillation cocktail (Microscinti 0, Perkin Elmer) was added, and the radioactivity of ^125I-CRF remaining on a glass filter was measured using Topcount (Perkin Elmer).
(TB-SB)/(TB-NSB)×100 (SB: radioactivity when a compound is added, TB: maximum binding radioactivity, NSB: nonspecific binding radioactivity) was calculated to obtain a binding inhibitory rate under the presence of 1,000 nM or 100 nM of each test substances.
Regarding `CCCN(CCC)c1nc2c(c(-c3ccc(C)cc3C)nn2C)c(=O)n1C` [9 (A), 3-(2,4-Dimethylphenyl)-6-dipropylamino-1,5-dimethyl-1,5-dihydro-4H-pyrazolo[3,4-d]pyrimidin-4-one], the inhibition is more than 80%.
In turn, `CCCC(CCC)n1cc(C)c(=O)c2c(-c3ccc(C)cc3C)cccc21` [Example 24, 5-(2,4-Dimethylphenyl)-3-methyl-1-(1-propylbutyl)quinolin-4(1H)-one] registered an inhibition of more than 80%.
`CCCN(CCC)c1cc(C)c(=O)n2c(-c3c(C)cc(C)cc3C)cccc12` [Example 28, 1-(Dipropylamino)-6-mesityl-3-methyl-4H-quinolizin-4-one] returned an inhibition of more than 80%.
The value for `CCCN(CCC)c1nc2c(c(-c3c(C)cc(C)cc3C)cn2C)c(=O)n1C` [Example 41, 2-(Dipropylamino)-5-mesityl-3,7-dimethyl-3,7-dihydro-4H-pyrrolo[2,3-d]pyrimidin-4-one] was more than 80%; that for `CCC(CC)Oc1nn(C)c(=O)c2c1ccn2-c1ccc(C)cc1C` [Example 96, 1-(2,4-Dimethylphenyl)-4-(1-ethylpropoxy)-6-methyl-1,6-dihydro-7H-pyrrolo[2,3-d]pyridazin-7-one] was more than 80%.
The value for `CCC(CC)n1c2cccc(-c3c(C)cc(C)cc3C)c2c(=O)n1C` [Example 150, 1-(1-ethylpropyl)-4-mesityl-2-methyl-1,2-dihydro-3H-indazol-3-one] was more than 80%.
